Assay results taken from patent US10011586B2, “Heterocyclic compound, method for preparing the same, and pharmaceutical composition comprising the same” (Daewoong Pharmaceutical Co., Ltd., priority 2015, dated 2018).
Like-named read-outs stand apart in the source and are kept apart here.

Tests used:
PRS enzyme = molecular target: T1, PRS enzyme (Homo sapiens, UniProt P07814); assay: PRS enzyme activity inhibition experiment; format: biochemical
T1 construct: the portion corresponding to PRS in cDNA of EPRS was subcloned; made in house
T1 sequence (P07814 1007-1512 limits assumed): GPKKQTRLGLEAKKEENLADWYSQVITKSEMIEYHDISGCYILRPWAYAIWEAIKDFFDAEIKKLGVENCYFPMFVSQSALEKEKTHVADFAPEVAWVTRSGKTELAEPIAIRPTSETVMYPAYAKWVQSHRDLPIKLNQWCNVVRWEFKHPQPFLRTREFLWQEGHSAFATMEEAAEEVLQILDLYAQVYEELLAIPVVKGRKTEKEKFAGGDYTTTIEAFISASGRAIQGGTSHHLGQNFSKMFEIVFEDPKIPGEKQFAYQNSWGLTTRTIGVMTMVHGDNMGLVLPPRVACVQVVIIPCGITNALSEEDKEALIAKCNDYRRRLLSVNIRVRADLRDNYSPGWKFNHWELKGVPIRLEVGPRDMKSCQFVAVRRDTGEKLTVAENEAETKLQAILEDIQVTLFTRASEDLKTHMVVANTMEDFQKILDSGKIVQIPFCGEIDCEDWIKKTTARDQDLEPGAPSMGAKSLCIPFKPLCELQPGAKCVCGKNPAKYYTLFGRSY
Experimental: Specifically, the portion corresponding to PRS in cDNA of EPRS was subcloned, and the obtained high-purity PRS protein was purified and used in the experiment. The compounds (1 μM) prepared in Examples were added into the reaction buffer (20 mM KPO4 (pH 7.4), 6 mM MgAc, 5 mM ATP, […] tRNA, 0.5 mM DTT, […][^3H]proline (1 mCi/mL)) and allowed to react at 37° C. for 5 to 10 minutes. The reaction was terminated with 3M paper that was in advance dried by addition of 5% TCA. The radioactivity was measured using a liquid scintillation counter.
% Inhibition and IC50 values of the respective compounds were calculated and analyzed using Microsoft Excel or Sigma Plot 8.0. In Table 1, the results are divided into A, B and C according to the range of IC50.

NCI-H460 cells = assay: Cancer cell growth inhibition experiment (MTT assay); format: cell-based; details: Homo sapiens, lung cancer cell line, compounds 48 hours, cell viability by MTT assay
Experimental: NCl-H460 cells, lung cancer cell lines, were cultured in 5% CO2, 37° C. incubator using a flask for 75 cm^2 tissue culture. 96-well plates were used for the evaluation. These were prepared by differently applying at concentrations in the range of 6,000 to 12,000 cells/well according to the growth rate of the cell lines. The medium containing 5% FBS were dispensed in 200 μL/well and used. The medium were cultured for 24 hours. After confirming the cell status and dispensing form of a 96-well plate under a microscope, they were used for subsequent experiments. The compounds were evaluated at concentrations of 100, 30, 10, 3, 1, 0.3, 0.03, 0.01 μM. After removing the existing medium, the compounds with various concentrations were treated in an amount of 200 μL/well. The compounds-treated plates were further cultured for 48 hours, and the cell viabilities were measured by MTT assay to calculate IC50 values.
% Inhibition and IC50 values of the respective compounds were calculated and analyzed using Sigma Plot 8.0. In Table 2, the results are divided into A, B and C according to the range of IC50. The case where the derived IC50 is 3 μM or less is represented by “A”, the case where the IC50 is 3 to 10 μM is represented by “B”, and the case where the IC50 is 10 μM or higher is represented by “C”.

[1] = purified PRS protein subcloned from EPRS cDNA, [3H]proline, 37° C., 5 to 10 minutes, liquid scintillation counter, read-out: PRS IC50

Row | Structure (SMILES) | IC50 (PRS enzyme; [1]) [µM] | IC50 (NCI-H460 cells) [µM] | IC50 (PRS enzyme) [µM]
1 | O=C(C[C@H]1NCCC[C@@H]1O)Cn1cnc2ccc(-c3cccc(C(F)(F)F)c3)nc21 [Example 47, 1-((2R,3S)-3-hydroxypiperidin-2-yl)-3-(5-(3-(trifluoromethyl)phenyl)-3H-imidazo[4,5-b]pyridin-3-yl)propan-2-one] | < 0.1 | ≤ 3 | 
2 | O=C(C[C@H]1NCCC[C@@H]1O)Cn1cnc2cccc(-c3ccccc3)c21 [Example 48, 1-((2R,3S)-3-hydroxypiperidin-2-yl)-3-(7-phenyl-1H-benzo[d]imidazol-1-yl)propan-2-one] | 0.1 to 0.5 | ≥ 10 | 
3 | O=C(C[C@H]1NCCC[C@@H]1O)Cn1cnc2cccc(-c3cccc(F)c3)c21 [Example 49, 1-(7-(3-fluorophenyl)-1H-benzo[d]imidazol-1-yl)-3-((2R,3S)-3-hydroxypiperidin-2-yl)propan-2-one] | < 0.1 | ≤ 3 | 
4 | O=C(C[C@H]1NCCC[C@@H]1O)Cn1cnc2cccc(-c3cccc(Cl)c3)c21 [Example 50, 1-(7-(3-chlorophenyl)-1H-benzo[d]imidazol-1-yl)-3-((2R,3S)-3-hydroxypiperidin-2-yl)propan-2-one] | 0.1 to 0.5 | ≥ 10 | 
5 | O=C(C[C@H]1NCCC[C@@H]1O)Cn1cnc2cccc(-c3ccc(Cl)cc3)c21 [Example 51, 1-(7-(4-chlorophenyl)-1H-benzo[d]imidazol-1-yl)-3-((2R,3S)-3-hydroxypiperidin-2-yl)propan-2-one] |  | ≥ 10 | 0.1 to 0.5
6 | O=C(C[C@H]1NCCC[C@@H]1O)Cn1cnc2cccc(-c3ccc(C(F)(F)F)cc3)c21 [Example 54, 1-((2R,3S)-3-hydroxypiperidin-2-yl)-3-(7-(4-(trifluoromethyl)phenyl)-1H-benzo[d]imidazol-1-yl)propan-2-one] | 0.1 to 0.5 | ≥ 10 | 
7 | O=C(C[C@H]1NCCC[C@@H]1O)Cn1c(CO)nc2cc(-c3cccc(F)c3)ccc21 [Example 56, 1-(5-(3-fluorophenyl)-2-(hydroxymethyl)-1H-benzo[d]imidazol-1-yl)-3-((2R,3S)-3-hydroxypiperidin-2-yl)propan-2-one] | > 0.5 | ≥ 10 | 
8 | O=C(C[C@H]1NCCC[C@@H]1O)Cn1c(CO)nc2ccc(-c3ccccc3)cc21 [Example 57, 1-(2-(hydroxymethyl)-6-phenyl-1H-benzo[d]imidazol-1-yl)-3-((2R,3S)-3-hydroxypiperidin-2-yl)propan-2-one] | < 0.1 | 3 to 10 | 
9 | O=C(C[C@H]1NCCC[C@@H]1O)Cn1c(CO)nc2ccc(-c3ccccc3F)cc21 [Example 58, 1-(6-(2-fluorophenyl)-2-(hydroxymethyl)-1H-benzo[d]imidazol-1-yl)-3-((2R,3S)-3-hydroxypiperidin-2-yl)propan-2-one] | < 0.1 | 3 to 10 | 
10 | O=C(C[C@H]1NCCC[C@@H]1O)Cn1c(CO)nc2ccc(-c3cccc(F)c3)cc21 [Example 59, 1-(6-(3-fluorophenyl)-2-(hydroxymethyl)-1H-benzo[d]imidazol-1-yl)-3-((2R,3S)-3-hydroxypiperidin-2-yl)propan-2-one] | < 0.1 | ≤ 3 | 
11 | O=C(C[C@H]1NCCC[C@@H]1O)Cn1c(CO)nc2ccc(-c3ccc(F)cc3)cc21 [Example 60, 1-(6-(4-fluorophenyl)-2-(hydroxymethyl)-1H-benzo[d]imidazol-1-yl)-3-((2R,3S)-3-hydroxypiperidin-2-yl)propan-2-one] | < 0.1 | ≥ 10 | 
12 | O=C(C[C@H]1NCCC[C@@H]1O)Cn1c(CO)nc2ccc(-c3cccc(C(F)(F)F)c3)cc21 [Example 61, 1-(2-(hydroxymethyl)-6-(3-(trifluoromethyl)phenyl)-1H-benzo[d]imidazol-1-yl)-3-((2R,3S)-3-hydroxypiperidin-2-yl)propan-2-one] | 0.1 to 0.5 | ≤ 3 | 
13 | OC(C[C@H]1NCCC[C@@H]1O)Cn1cnc2ccc(-c3cccc(Cl)c3)nc21 (stereo partly drawn) [Example 62, (2R,3S)-2-(3-(5-(3-chlorophenyl)-3H-imidazo[4,5-b]pyridin-3-yl)-2-hydroxypropyl)piperidin-3-ol] | < 0.1 | ≥ 10 | 
14 | OC(C[C@H]1NCCC[C@@H]1O)Cn1cnc2ccc(-c3cccc(Cl)c3)cc21 (stereo partly drawn) [Example 63, (2R,3S)-2-(3-(6-(3-chlorophenyl)-1H-benzo[d]imidazol-1-yl)-2-hydroxypropyl)piperidin-3-ol] | 0.1 to 0.5 | ≥ 10 | 
